Measured values taken from patent US12370182B2, “Bicyclic derivatives as GABAA A5 receptor modulators” (RICHTER GEDEON NYRT., priority 2018, dated 2025).

Tests used:
[1] = target: T1, human recombinant GABAA α5β3γ2 receptor (Homo sapiens (Human), UniProt P18507+P31644); assay: Binding assay, [3H]Ro151788 displacement on membranes of HEK cells; conditions: 0.5 nM [3H]Ro151788, 60 minutes at 4° C., Cheng-Prusoff; read-out: hGABAA α5 Ki
Procedure, shortened: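 HEK-cell membranes with recombinant human α5β3γ2 incubated 60 min at 4 °C with 0.5 nM [3H]Ro151788 in 50 mM Tris pH 7.4, 100 mM KCl; nonspecific binding with 10 μM diazepam. Filtration, scintillation count; % inhibition of specific binding, IC50 from ≥6 concentrations in triplicate, Ki via Cheng-Prusoff.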

[2] = target: human recombinant GABAA α1β3γ2 receptor (Homo sapiens (Human), UniProt P14867+P18507); assay: Functional assay, QPatch automated patch clamp, GABA-evoked currents; format: cell-based; conditions: test compound 10 μM, 1 μM GABA, HEK293 cells, percentage modulation of peak current
Method: (§1) Human HEK293 cell lines expressing GABAA α1β3γ2 and GABAAα5β3γ2 receptors were used in functional assays using the QPatch automated patch clamp system.
(§2) HEK293 cell lines stably expressing human recombinant GABAA α1β3γ2 receptor subunits (Millipore, CYL3073) or human recombinant GABAA α5β3γ2 receptor subunits (Millipore, CYL3053) were cultured in DMEM supplemented with 10% FBS (Gibco), passed two times per week and plated on Petri dishes previously coated with poly-d-lysine.
(§3) Automated whole-cell patch clamp recordings were made from cells 2-4 days after plating. Cells were detached using trypsin/EDTA (Sigma) treatment (2 minutes in 0.25% trypsin at 37° C.), then, after centrifugation (125 G, 3 min, 2×), resuspended in a serum-free based media (Gibco, CHO—S-SFM-II) containing 12.5 mM HEPES, 1× penicillin-streptomycin-amphotericin (SigmaMix) and soybean trypsin inhibitor (Sigma, 0.04 mg/ml).
(§4) Cell suspension, as well as the extracellular solution (130 mM NaCl, 5 mM KCl, 5.1 mM HEPES, 4.9 mM HEPES-Na, 10 mM CaCl2), 2 mM MgCl2, 10 mM glucose and 0.1% DMSO, pH=7.35-7.4) and the intracellular solution (80 mM KCl, 50 mM KF, 36 mM KOH, 10 mM EGTA, 10 mM HEPES, 1.75 mM MgCl2, 0.5 mM CaCl2), 4 mM Na2ATP. 14 mM phosphocreatine, 50 U/ml creatine-phosphokinase, 0.3 mM GTP, pH=7.25-7.3) were added to the QPatch-HTX automated patch clamp system (Sophion) in single-cell mode at room temperature. […] At the end of the experiment 100 μM GABA was applied to saturate the GABA-response and to assess the efficacy of the control GABA application.
(§5) The percentage modulation was calculated from the comparison of GABA-evoked peak current amplitudes in the presence and absence of the test compound.

[3] = target: T1, human recombinant GABAA α5β3γ2 receptor; assay: as above; format: cell-based; conditions: test compound 10 μM, 1 μM GABA, HEK293 cells, percentage modulation of peak current
Method: as §1, §2, §3, §4, §5

Chain of human recombinant GABAA α1β3γ2 receptor (P14867 28-456): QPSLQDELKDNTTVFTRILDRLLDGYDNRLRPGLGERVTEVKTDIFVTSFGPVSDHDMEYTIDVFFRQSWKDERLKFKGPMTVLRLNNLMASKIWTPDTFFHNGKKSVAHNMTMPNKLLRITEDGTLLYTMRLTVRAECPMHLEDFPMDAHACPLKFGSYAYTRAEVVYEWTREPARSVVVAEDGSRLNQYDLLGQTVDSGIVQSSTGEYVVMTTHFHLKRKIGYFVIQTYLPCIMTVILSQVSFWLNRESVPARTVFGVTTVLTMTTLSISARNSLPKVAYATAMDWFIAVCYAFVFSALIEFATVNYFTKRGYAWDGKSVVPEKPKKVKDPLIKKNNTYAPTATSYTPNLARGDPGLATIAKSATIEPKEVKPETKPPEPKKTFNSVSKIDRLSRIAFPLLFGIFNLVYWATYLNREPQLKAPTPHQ
Chain of human recombinant GABAA α1β3γ2 receptor (P28472 26-473 partner): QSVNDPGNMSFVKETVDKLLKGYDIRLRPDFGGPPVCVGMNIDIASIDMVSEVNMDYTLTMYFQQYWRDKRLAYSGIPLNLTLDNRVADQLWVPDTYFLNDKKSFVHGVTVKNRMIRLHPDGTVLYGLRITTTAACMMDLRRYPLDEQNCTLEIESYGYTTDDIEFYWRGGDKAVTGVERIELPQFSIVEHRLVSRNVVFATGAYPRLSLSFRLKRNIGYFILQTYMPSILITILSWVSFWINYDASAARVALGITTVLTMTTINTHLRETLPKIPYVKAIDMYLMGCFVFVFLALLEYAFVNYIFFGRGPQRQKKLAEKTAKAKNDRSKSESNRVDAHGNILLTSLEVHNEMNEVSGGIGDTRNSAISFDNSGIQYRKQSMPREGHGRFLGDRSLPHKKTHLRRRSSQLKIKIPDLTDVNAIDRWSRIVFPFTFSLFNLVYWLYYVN
Chain of human recombinant GABAA α1β3γ2 receptor (P18507 40-475): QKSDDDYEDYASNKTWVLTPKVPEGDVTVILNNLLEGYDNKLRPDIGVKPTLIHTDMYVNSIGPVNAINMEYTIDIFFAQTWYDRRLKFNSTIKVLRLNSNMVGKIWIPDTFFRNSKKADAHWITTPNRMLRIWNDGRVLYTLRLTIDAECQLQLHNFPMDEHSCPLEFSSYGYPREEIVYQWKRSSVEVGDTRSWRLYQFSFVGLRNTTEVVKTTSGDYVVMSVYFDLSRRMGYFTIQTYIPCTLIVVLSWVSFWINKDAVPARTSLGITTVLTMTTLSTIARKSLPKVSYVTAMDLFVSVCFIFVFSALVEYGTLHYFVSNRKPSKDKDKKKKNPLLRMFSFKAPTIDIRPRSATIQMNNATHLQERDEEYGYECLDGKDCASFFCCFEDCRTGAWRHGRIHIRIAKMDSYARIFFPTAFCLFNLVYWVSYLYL
T1 sequence (P31644 32-462): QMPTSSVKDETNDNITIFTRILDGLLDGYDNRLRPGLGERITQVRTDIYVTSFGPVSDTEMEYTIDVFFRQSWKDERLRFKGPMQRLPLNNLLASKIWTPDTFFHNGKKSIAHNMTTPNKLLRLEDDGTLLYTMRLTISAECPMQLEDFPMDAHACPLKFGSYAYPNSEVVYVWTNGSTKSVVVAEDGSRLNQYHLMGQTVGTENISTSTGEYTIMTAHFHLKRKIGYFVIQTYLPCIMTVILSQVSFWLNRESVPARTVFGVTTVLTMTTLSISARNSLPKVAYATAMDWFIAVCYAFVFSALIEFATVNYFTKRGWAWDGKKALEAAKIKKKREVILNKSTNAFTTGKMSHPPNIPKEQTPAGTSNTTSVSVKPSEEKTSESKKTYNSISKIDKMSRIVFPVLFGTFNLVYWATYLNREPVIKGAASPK
T1 sequence (P28472 26-473 partner): as the sequence (P28472 26-473 partner) above
T1 sequence (P18507 40-475): as the sequence (P18507 40-475) above

Compound: Cc1nnn(-c2ccc(F)cc2)c1COc1ccc2c(n1)CCN(C(=O)C1CCS(=O)(=O)CC1)C2 [Example 23, 4-(2-{[1-(4-fluorophenyl)-4-methyl-1H-1,2,3-triazol-5-yl]methoxy}-5,6,7,8-tetrahydro-1,6-naphthyridine-6-carbonyl)-1lambda6-thiane-1,1-dione]
- Ki [1]: 45 nM
- hGABAA α1 efficacy [2]: −4%
- hGABAA α5 efficacy [3]: −47%

Compound: Cc1nnn(-c2ccc(F)cc2)c1COc1ccc2c(n1)CCN(C(=O)C1CCOCC1)C2 [Example 28, 2-{[1-(4-fluorophenyl)-4-methyl-1H-1,2,3-triazol-5-yl]methoxy}-6-(oxane-4-carbonyl)-5,6,7,8-tetrahydro-1,6-naphthyridine]
- Ki [1]: 43 nM
- hGABAA α1 efficacy [2]: −6%
- hGABAA α5 efficacy [3]: −40%

Compound: CC(=O)N1CCc2nc(OCc3c(C)nnn3-c3ccc(F)cc3)ccc2C1 [Example 14, 1-(2-{[1-(4-fluorophenyl)-4-methyl-1H-1,2,3-triazol-5-yl]methoxy}-5,6,7,8-tetrahydro-1,6-naphthyridin-6-yl)ethan-1-one]
- Ki [1]: 28 nM
- hGABAA α1 efficacy [2]: 0%
- hGABAA α5 efficacy [3]: −36%

Compound: Cc1nnn(-c2ccc(F)cc2)c1COc1ccc2c(n1)CCN(C(=O)NC1CC(=O)N(C)C1)C2 (stereo not drawn) [Example 75, 2-{[1-(4-fluorophenyl)-4-methyl-1H-1,2,3-triazol-5-yl]methoxy}-N-(1-methyl-5-oxopyrrolidin-3-yl)-5,6,7,8-tetrahydro-1,6-naphthyridine-6-carboxamide]
- Ki [1]: 38 nM
- hGABAA α1 efficacy [2]: −3%
- hGABAA α5 efficacy [3]: −35%

Compound: Cc1nnn(-c2ccc(F)cc2)c1COc1ccc2c(n1)CN(C(=O)C1CCCO1)C2 (stereo not drawn) [Example 61, 1-(4-fluorophenyl)-4-methyl-5-({[6-(oxolane-2-carbonyl)-5H,6H,7H-pyrrolo[3,4-b]pyridin-2-yl]oxy}methyl)-1H-1,2,3-triazole]
- Ki [1]: 4.8 nM
- hGABAA α1 efficacy [2]: −20%
- hGABAA α5 efficacy [3]: −41%

Compound: Cc1onc(-c2ccc(F)cc2)c1COc1ccc2c(n1)CCN(C(=O)C1CC(=O)N(C)C1)C2 (stereo not drawn) [Example 13, 4-(2-{[3-(4-fluorophenyl)-5-methyl-1,2-oxazol-4-yl]methoxy}-5,6,7,8-tetrahydro-1,6-naphthyridine-6-carbonyl)-1-methylpyrrolidin-2-one]
- Ki [1]: 4.3 nM
- hGABAA α1 efficacy [2]: −3%
- hGABAA α5 efficacy [3]: −34%

Compound: Cc1onc(-c2ccc(F)cc2)c1COc1ccc2c(n1)CCN(C(=O)C1CCS(=O)(=O)CC1)C2 [Example 6, 4-(2-{[3-(4-fluorophenyl)-5-methyl-1,2-oxazol-4-yl]methoxy}-5,6,7,8-tetrahydro-1,6-naphthyridine-6-carbonyl)-1lambda6-thiane-1,1-dione]
- Ki [1]: 2.7 nM
- hGABAA α1 efficacy [2]: −10%
- hGABAA α5 efficacy [3]: −38%

Compound: Cc1nnn(-c2ccc(F)cc2)c1COc1ccc2c(n1)CCN(C(=O)[C@@H]1CCOC1)C2 [Example 17, 2-{[1-(4-fluorophenyl)-4-methyl-1H-1,2,3-triazol-5-yl]methoxy}-6-[(3R)-oxolane-3-carbonyl]-5,6,7,8-tetrahydro-1,6-naphthyridine]
- Ki [1]: 69 nM
- hGABAA α1 efficacy [2]: −6%
- hGABAA α5 efficacy [3]: −37%

Compound: Cc1nnn(-c2ccc(F)cc2)c1COc1ccc2c(n1)CN(C(=O)CC(C)C)C2 [Example 56, 1-(2-{[1-(4-fluorophenyl)-4-methyl-1H-1,2,3-triazol-5-yl]methoxy}-5H,6H,7H-pyrrolo[3,4-b]pyridin-6-yl)-3-methylbutan-1-one]
- Ki [1]: 17 nM
- hGABAA α1 efficacy [2]: −14%
- hGABAA α5 efficacy [3]: −40%
